Consider 12 molecules from US8288428B2, “Compounds as cannabinoid receptor ligands” (Abbott Laboratories, priority 2009, dated 2012).

Test [1] concerns ovariectomy-induced bone loss. The following applies: mice, model for post-menopausal osteoporosis; cited from earlier work.
In test [2] the test system is apolipoprotein E knockout mice. The following applies: cited from earlier work.
A further test deals with microglial activation. Conditions: in vitro; cited from earlier work.
The subject of a further test is osteoclast activity. Conditions: cited from earlier work.
The target of another test is T1, rat CB2 receptors (Rattus norvegicus, UniProt Q9QZN9).
T1 construct: expressed in transfected cells; membrane preparation
T1 sequence (Q9QZN9 1-360): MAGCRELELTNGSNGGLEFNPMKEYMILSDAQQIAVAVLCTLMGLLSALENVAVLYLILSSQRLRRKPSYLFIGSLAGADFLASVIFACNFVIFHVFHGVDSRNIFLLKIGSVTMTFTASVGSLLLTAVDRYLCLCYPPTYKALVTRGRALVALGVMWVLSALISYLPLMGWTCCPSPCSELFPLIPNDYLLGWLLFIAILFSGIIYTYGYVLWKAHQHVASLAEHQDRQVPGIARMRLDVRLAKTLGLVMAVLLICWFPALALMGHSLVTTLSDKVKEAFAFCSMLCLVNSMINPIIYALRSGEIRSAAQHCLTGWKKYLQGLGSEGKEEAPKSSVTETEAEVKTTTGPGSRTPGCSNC
As to the kind of experiment: rat CB2 radioligand binding assay. The procedure:
(§1) (i) In Vitro Methods—CB2 and CB1 Radioligand Binding Assays:
(§2) The CB1 and CB2 radioligand binding assays described herein are utilized to ascertain the selectivity of compounds of the present application for binding to CB2 relative to CB1 receptors.
(§3) HEK293 cells stably expressing rat CB2 receptors were grown until a confluent monolayer was formed. Briefly, the cells were harvested and homogenized in TE buffer (50 mM Tris-HCl, 1 mM MgCl2, and 1 mM EDTA) using a polytron for 2×10 second bursts in the presence of protease inhibitors, followed by centrifugation at 45,000×g for 20 minutes. The final membrane pellet was re-homogenized in storage buffer (50 mM Tris-HCl, 1 mM MgCl2, and 1 mM EDTA and 10% sucrose) and frozen at −78° C. until used. Saturation binding reactions were initiated by the addition of membrane preparation (protein concentration of 20 μg/well for rat CB2) into wells of a deep well plate containing [^3H]CP-55,940 (120 Ci/mmol, a nonselective CB agonist commercially available from Tocris) in assay buffer (50 mM Tris, 2.5 mM EDTA, 5 mM MgCl2, and 0.5 mg/mL fatty acid free BSA, pH 7.4). After 45 min incubation at 30° C., binding reaction was terminated by the addition of 300 μL/well of cold assay buffer followed by rapid vacuum filtration through a UniFilter-96 GF/C filter plates (pre-soaked in 1 mg/mL BSA for 2 hours). The bound activity was counted in a TopCount using Microscint-20. Saturation experiments were conducted with twelve concentrations of [^3H]CP-55,940 ranging from 0.01 to 8 nM. Competition experiments were conducted with 0.5 nM [^3H]CP-55,940 and five concentrations of displacing ligands selected from the range of 0.01 nM to 10 μM. The addition of 10 μM unlabeled CP-55,940 (Tocris, Ellisville, Mo.) was used to assess nonspecific binding.

In a further test the target is T2, human CB2 receptors (Homo sapiens, UniProt P34972).
T2 construct: expressed in transfected cells; membrane preparation
T2 sequence (P34972 whole entry): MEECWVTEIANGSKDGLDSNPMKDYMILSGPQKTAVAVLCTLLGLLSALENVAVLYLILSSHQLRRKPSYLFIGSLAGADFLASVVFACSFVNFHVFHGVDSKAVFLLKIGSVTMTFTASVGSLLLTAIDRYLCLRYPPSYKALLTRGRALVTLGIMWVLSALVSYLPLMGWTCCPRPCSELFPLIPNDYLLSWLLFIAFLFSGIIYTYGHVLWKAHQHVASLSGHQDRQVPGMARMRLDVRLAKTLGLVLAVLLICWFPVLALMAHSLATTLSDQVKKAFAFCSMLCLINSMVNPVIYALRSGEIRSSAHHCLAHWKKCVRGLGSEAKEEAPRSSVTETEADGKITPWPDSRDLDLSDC
The experiment in a line: human CB2 radioligand binding assay. The procedure: as §1, §2
as §3, with “expressing human” for “expressing rat”, “of 5” for “of 20”, “for human” for “for rat”, “After 90” for “After 45”, “concentrations (0.01” for “concentrations of displacing ligands selected from the range of 0.01”, “10 μM) of displacing ligands.” for “10 μM.”

A further test has as its system rodent models of pain. Conditions: rodent models of neuropathic, incisional, chronic and acute inflammatory pain; cited from earlier work.
The test system of test [3] is rat formalin model of persistent pain. Conditions: cited from earlier work.
A further test has as its system animal models of pain. Conditions: animal models of acute thermal, persistent, inflammatory and neuropathic pain; cited from earlier work.
Setting [4] is: competition with 0.5 nM [3H]CP-55,940, HEK293 membranes expressing human CB2, read-out: human CB2 binding (Ki).

Where two headings read alike, the source gives them in different places.

For orientation: Ki means a dissociation constant, usually derived from enzyme kinetics or from competition with a known ligand.

Regarding SR144528, in test [1], the “effect on ovariectomy-induced bone loss” value is on record as “reverse”. The “inhibition of THC effects on atherosclerotic lesions” value in test [2] is on record as “inhibited”. The “blockade of JWH-133 effects on β-amyloid-induced microglial activation and neurotoxicity” value in the test on microglial activation is recorded as “blocked”. Also, the “effect on osteoclast activity” value with osteoclast activity was “inhibit”.
For (−)-Δ^9-Tetrahydrocannabinol [THC], in [2] (low doses), the “progression of atherosclerotic lesions” value is given as “slowed the progression”.
In the case of `CCCCn1nc(C(C)(C)C)s/c1=N\C(=O)c1cc(C(F)(F)F)ccc1CN1CC(C(=O)OC)C1` [Example 21, methyl 1-[2-({[(2Z)-3-butyl-5-tert-butyl-1,3,4-thiadiazol-2(3H)-ylidene]amino}carbonyl)-4-(trifluoromethyl)benzyl]azetidine-3-carboxylate], the values for the Ki on rat CB2 receptors and at human CB2 receptors were 0.00179 µM and 0.00393 µM, respectively.
For `Cn1c(C(C)(C)C)c/c(=N\C(=O)c2cc(C(F)(F)F)ccc2CCC(C)(C)O)n1CC1CCC1` [Example 7, N-[(3E)-5-tert-butyl-2-(cyclobutylmethyl)-1-methyl-1,2-dihydro-3H-pyrazol-3-ylidene]-2-(3-hydroxy-3-methylbutyl)-5-(trifluoromethyl)benzamide], in that order: 0.0172 µM and 0.0208 µM.
`CCCC(C)(C)c1ccc2c(c1)OC(C)(C)[C@@H]1CC=C(C)C[C@@H]21` [JWH-133]: in the test with microglial activation, the “effect on β-amyloid-induced microglial activation and neurotoxicity” value was “abrogated”.
As to `Cn1c(C(C)(C)C)c/c(=N\C(=O)c2cc(C(F)(F)F)ccc2/C=C/C(C)(C)O)n1CC1CC1` [Example 3, N-[(3E)-5-tert-butyl-2-(cyclopropylmethyl)-1-methyl-1,2-dihydro-3H-pyrazol-3-ylidene]-2-[(1E)-3-hydroxy-3-methylbut-1-enyl]-5-(trifluoromethyl)benzamide], the Ki on rat CB2 receptors stood at 0.0372 µM; at human CB2 receptors it was 0.0417 µM.
Regarding `CCCCn1/c(=N/C(=O)c2cc(C(F)(F)F)ccc2CC(=O)OC(C)(C)C)cc(C(C)(C)C)n1C` [Example 23, tert-butyl[2-({[(3E)-2-butyl-5-tert-butyl-1-methyl-1,2-dihydro-3H-pyrazol-3-ylidene]amino}carbonyl)-4-(trifluoromethyl)phenyl]acetate], the results for the Ki at rat CB2 receptors and on human CB2 receptors (setting [4]) were 0.0802 µM and 0.269 µM, respectively.
As for `COc1ccc2c(c1)c(CCN1CCOCC1)c(C)n2C(=O)c1cccc(Cl)c1Cl` [GW405833], the “efficacy in pain models” value in the test with rodent models of pain is recorded as “efficacious”.
With `CCCCn1nc(C(C)(C)C)s/c1=N\C(=O)c1cc(C(F)(F)F)ccc1CN1CC(C(C)(C)O)C1` [Example 22, N-[(2Z)-3-butyl-5-tert-butyl-1,3,4-thiadiazol-2(3H)-ylidene]-2-{[3-(1-hydroxy-1-methylethyl)azetidin-1-yl]methyl}-5-(trifluoromethyl)benzamide], the results for the Ki at rat CB2 receptors and at human CB2 receptors were 0.00214 µM and 0.00533 µM, respectively.
In the case of `CCCCn1/c(=N/C(=O)c2cc(C(F)(F)F)ccc2CN2CC(O)C2)cc(C(C)(C)C)n1C` [Example 24, N-[(3E)-2-butyl-5-tert-butyl-1-methyl-1,2-dihydro-3H-pyrazol-3-ylidene]-2-[(3-hydroxyazetidin-1-yl)methyl]-5-(trifluoromethyl)benzamide], the inhibition constant (Ki) on rat CB2 receptors turned out to be 0.0875 µM; at human CB2 receptors (setting [4]) it was 0.117 µM.
Turning to `CCCCCCC(C)(C)c1cc(OC)c([C@@H]2C=C(CO)[C@@H]3C[C@H]2C3(C)C)c(OC)c1` [HU-308], the antinociceptive response result in test [3] is recorded as “elicits an antinociceptive response”.
Regarding `CN1CCCCC1Cn1cc(C(=O)c2cc([N+](=O)[O-])ccc2I)c2ccccc21` (stereo not drawn) [AM-1241], in the test on animal models of pain, the analgesic efficacy result is “robust analgesic efficacy”.
